Measured values from patent US20100166726A1, “COMPOSITIONS FOR IMPROVING CELLULAR UPTAKE OF A CHEMOTHERAPEUTIC AGENT IN A CELL EXHIBITING MUCIN DEREGULATION” (NORTHEASTERN UNIVERSITY, priority 2007, published 2010).

Tests used:
Capan-1 cells [1] = experiment: Cellular toxicity of benzyl-α-GalNAc, sulforhodamine B assay; type: cell-based, human; details: 72 hr exposure
Method: (§1) O-glycosylation is critical for mucin formation. […] These cellular toxicity studies were performed as follows.

HPAF-II cells [2] = experiment: as above; type: cell-based, human; details: 72 hr exposure
Method: as §1

[3] = system: Capan-1, HPAF-II, and U-87 MG cells; experiment: Cell morphology by DIC microscopy after benzyl-α-GalNAc exposure; type: cell-based, human; details: 72 hr exposure at maximum non-toxic concentration
Method: To observe the effects of benzyl-α-GalNAc exposure on cell morphology, differential interference contract (DIC) microscopy was employed. Sterile cover slips were placed in six-well plates (Corning, N.Y.). Capan-1, HPAF-II, and U-87 MG cells were next seeded at 1×10^4 per ml in the same 6-well plates.

Capan-1 cells [4] = experiment: Anti-MUC1 (CD227) antibody association after benzyl-α-GalNAc exposure (microplate fluorescence, FACS); type: cell-based, human
Method: (§2) In order to determine whether the concentrations of benzyl-α-GalNAc employed are sufficient to inhibit MUC1 O-glycosylation, we observed the alterations in anti-MUC1 (CD227) association after exposure to the inhibitor. The antibody association studies were performed as follows. […] After each exposure time point the cells were washed with 1×PBS and 1 ml of fresh media was added to each well. The cells were then exposed to 4 μl/well of anti-MUC1 antibody.
(§3) Fluorescence-activated cell-sorting (FACS) analysis was then performed as follows. […] After 48 hr exposure to benzyl-α-GalNAc cells were washed with 1×PBS and 1 ml of fresh media was added to each well. The cells were then exposed to 4 μl/well of CD227 antibody. Following 24 hr incubation with the antibody, cells were washed with 1×PBS to remove any unassociated antibody and cells were detached using 0.5 ml/well trypsin. Cells were then washed with 1×PBS and antibody association was determined using FACS analysis.

HPAF-II cells [5] = experiment: as above; type: cell-based, human
Method: as §2, §3

U-87 MG cells [6] = experiment: Anti-MUC1 (CD227) antibody association after benzyl-α-GalNAc exposure (FACS); type: cell-based, human; details: 48 hr exposure
Method: as §3

HPAF-II cells [7] = experiment: 5-FU cytotoxicity with or without benzyl-α-GalNAc pre-exposure, sulforhodamine B assay; type: cell-based, human; details: 48 hr exposure followed by 5-FU (108 μmol/ml) 24 hr
Method: The effects of increasing benzyl-α-GalNAc concentrations on cytotoxicity of 5-FU (108 μmol/ml) against HPAF-II cells was first tested. […] The growth inhibitory effect of 5-FU after 24 hr of exposure was determined using sulforhodamine B (Sigma-Aldrich, St. Louis, Mo.) assay the percent of viable cells was calculated as follows: […]

Capan-1 cells [8] = experiment: Cell viability and morphology after removal of benzyl-α-GalNAc; type: cell-based, human
Method: (§4) These experiments were conducted to determine whether the successful elimination of the glycosylated functional groups surrounding the MUC1 peptide core limit the capacity of cells to proliferate once benzyl-α-GalNAc has been removed. A significant change in cells' ability to multiply and divide due to exposure to benzyl-α-GalNAc would affect the measure of MUC1's role in our experiment. Capan-1 and HPAF-II cells were exposed to benzyl-α-GalNAc for 48 hr. Percent of cell viability was determined 24 hr, 48 hr, and 72 hr after removal of benzyl-α-GalNAc. […] Following 48 hr exposure to benzyl-α-GalNAc cells were washed with 1×PBS and then allowed to grow for an additional 24 hr, 48 hr, and 72 hr in fresh media.

HPAF-II cells [9] = experiment: as above; type: cell-based, human
Method: as §4

Capan-1 tumors [10] = experiment: MUC1 carbohydrate staining of tumors after intratumoral benzyl-α-GalNAc; type: in vivo, SCID mice; details: four intratumoral injections (10 mg/ml, 0.1 cc) at intervals of 48 hr
Method: (§5) All animal work was performed in the animal facility at Northeastern University, Boston, Mass. in accordance with the institutional guidelines. Female SCID (severe combined immunodeficient mice), 6 to 8 weeks old purchased from Massachusetts General Hospital, Boston, Mass. were used for our study since they have been used successfully for developing human xenografts of pancreatic tumors. To establish the tumors, 2.5×10^6 Capan-I cells in 0.1 ml of cell culture medium were injected into the subcutaneous dorsa of all mice. Mice were weighed daily using a digital weighing balance (AccuSeries®, Fisher Scientific, Arvada, Colo.) and tumor volumes were also measured every day using an electronic digital caliper (Control Company, Friendswood, Tex.). Tumor volumes were calculated using the formula a^2×b×0.52, where “a” is the longer diameter and “b” is the shorter diameter. […]
(§6) In order to test the in vivo effect of Benzyl-α-GalNAc in a pancreatic tumor model, Benzyl-α-GalNAc was administered locally into the tumor mass of mice via intratumoral injections (10 mg/ml, 0.1 cc). […] Following intratumoral injections, the sections of subcutaneous Capan-1 and HPAF-II tumors were analyzed for MUC1 carbohydrate staining (FIG. 7B).

HPAF-II tumors = experiment: as above; type: in vivo, SCID mice; details: four intratumoral injections (10 mg/ml, 0.1 cc) at intervals of 48 hr
Method: as §5, §6

Capan-1 tumors [11] = experiment: Anti-tumoral activity in Capan-1 pancreatic tumor model (tumor volume, histochemical staining, neoplastic cell density); type: in vivo, SCID mice
Method: All animal work was performed in the animal facility at Northeastern University, Boston, Mass. in accordance with the institutional guidelines. Female SCID (severe combined immunodeficient mice), 6 to 8 weeks old purchased from Massachusetts General Hospital, Boston, Mass. were used for our study since they have been used successfully for developing human xenografts of pancreatic tumors. To establish the tumors, 2.5×10^6 Capan-I cells in 0.1 ml of cell culture medium were injected into the subcutaneous dorsa of all mice. Mice were weighed daily using a digital weighing balance (AccuSeries®, Fisher Scientific, Arvada, Colo.) and tumor volumes were also measured every day using an electronic digital caliper (Control Company, Friendswood, Tex.). Tumor volumes were calculated using the formula a^2×b×0.52, where “a” is the longer diameter and “b” is the shorter diameter. Once the tumor volumes were approximately 50 mm^3-70 mm^3 the experimental groups received intratumoral injections of benzyl-α-GalNAc (0.1 ml injection; 10 mg/ml) whereas […] at intervals of 48 hr. When the tumor volumes were approximately 100 mm^3 5-FU was administered via the intravenous route. Animals in treatment groups received two injections (0.1 ml) of 5-FU at interval of 4 days whereas control mice received saline (0.1 ml). The total dose of 5-FU administered was 125 mg/kg. At the end of the experiment animals were sacrificed, tumor tissue was surgically removed and fixed in 10% formalin at 4° C. for histochemical staining.
For histochemical staining, paraffin-embedded tissue sections (5 μm) were stained with hematoxylin and eosin (H&E) to evaluate and compare the extent of tissue viability. The tumor sections were scanned and qualitative images captured using brightfield microscopy (Olympus BX61WI, NY). The number of tumor cells in each section was quantified using bioquant imaging software and expressed as percent of total tumor area. To quantify the total tumor area we first traced the outline of the entire tumor section in each field of view (FOV). The pixels within the traced area were then selected and the pixel count was determined by the software. A total of five FOV were analyzed to determine the total pixel count of the tumor area. Microscope stage encoders were used to ensure that no tumor area was counted more than once. Similarly the total pixel count of the neoplastic cells featured in blue in each FOV was determined. The total percent of neoplastic cell density was calculated as follows: […]
For these studies the pancreatic cell line, Capan-1 was used to used to establish a pancreatic tumor model. Capan-1 tumors were established in subcutaneous dorsa of female SCID mice (see, Example 7). […] 5-FU therapy began when the tumor size was approximately 100 mm^3.

U-87 MG cells [12] = details: 72 hr exposure
Method: In order to determine the contribution of MUC1 expression in the delivery of drugs such as 5-FU to pancreatic tumors, the maximum non-toxic concentration of benzyl-α-GalNAc that could be used to inhibit O-glycosylation of MUC1 was determined from cellular toxicity studies. These cellular toxicity studies were performed as follows. Cells were seeded at 1×10^4 per ml in 48-well plates. Following a 24 hr incubation period at 37° C., cells were exposed to various concentrations of benzyl-α-GalNAc solution (Sigma-Aldrich, St. Louis, Mo.) prepared in media. After 72 hr of cell exposure to benzyl-α-GalNAc, the percent of cell viability was determined using sulforhodamine B assay (Kalra et al., Pharm. Res., 23(12):2809-2817 (2006); Skehan et al., J. Natl. Cancer Inst,. 82:1107-1112 (1990)) and calculated as follows:

[13] = 24 hr, 48 hr, or 72 hr exposure at maximum non-toxic concentration
[14] = 48 hr exposure then fresh media

CC(=O)N[C@H]1[C@@H](OCc2ccccc2)O[C@H](CO)[C@H](O)[C@@H]1O [benzyl-α-GalNAc, benzyl-2-acetamido-2-deoxy-α-D-galactopyranoside]
maximum non-toxic concentration (Capan-1 cells [1]): 0.4 mg/mL
maximum non-toxic concentration (HPAF-II cells [2]): 0.8 mg/mL
morphological structures of cells compared to cells not exposed [3]: no visible difference
anti-MUC1 (CD227) antibody association, fluorescence intensity vs cells not exposed (Capan-1 cells [4]; [13]): significantly enhanced
FACS analysis of CD227 association vs cells not exposed (Capan-1 cells [4]; 48 hr exposure): shift in fluorescence peaks
anti-MUC1 (CD227) antibody association, fluorescence intensity vs cells not exposed (HPAF-II cells [5]; [13]): significantly enhanced
FACS analysis of CD227 association vs cells not exposed (HPAF-II cells [5]; 48 hr exposure): shift in fluorescence peaks
FACS analysis of CD227 association vs cells not exposed (U-87 MG cells [6]): no shift in peak
benzyl-α-GalNAc concentration at which decrease of percent cell viability vs 5-FU alone was significant (HPAF-II cells [7]): ≥ 0.4 mg/mL
effect on growth post-removal of inhibitor vs untreated controls (Capan-1 cells [8]; 0.4 mg/ml for 48 hr, then 24 hr, 48 hr, 72 hr in fresh media): No significant effect
morphology (DIC images) post-removal of inhibitor (Capan-1 cells [8]; [14]): no visible morphological changes
effect on growth post-removal of inhibitor vs untreated controls (HPAF-II cells [9]; 0.8 mg/ml for 48 hr, then 24 hr, 48 hr, 72 hr in fresh media): No significant effect
morphology (DIC images) post-removal of inhibitor (HPAF-II cells [9]; [14]): no visible morphological changes
staining for MUC1 O-glycosylation vs tumors not exposed (Capan-1 tumors [10]): Lower staining
staining for MUC1 O-glycosylation vs tumors not exposed (HPAF-II tumors): Lower staining
histochemical staining of tumor sections, neoplastic cells (Capan-1 tumors [11]; H&E stained sections): dense packing of neoplastic cells
tumor volume compared to control tumors (saline group) (Capan-1 tumors [11]; benzyl-α-GalNAc intratumoral days 4, 6, 8, 10, 5-FU intravenous, total 125 mg/kg): No difference
Percent Tumor Area (neoplastic cell density as percent of total tumor area) (Capan-1 tumors [11]; bioquant imaging software, tumor sections at end of experiment): 28.3 ± 1.8%
tolerated concentration (U-87 MG cells [12]): > 0.8 mg/mL
